The target in the assay is PAF receptor (Oryctolagus cuniculus, UniProt G1TEI7). Description: PAF receptor binding assay: inhibition of specific [3H]C18-PAF binding to rabbit platelet membranes. The gist of the method:
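Rabbit platelet membranes (10 μg protein) incubated 60 min at 22-23 °C with 0.6 nM [3H]C18-PAF in TME buffer pH 7.0 plus 0.25% BSA; nonspecific binding with 1 μM PAF. Filtered bound radioactivity counted; IC50 by point-to-point evaluation from ≥4 doses in triplicate, Ki by Cheng-Prusoff.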

Where [1] appears, read: Ki (PAF Receptor Binding Activity), 0.6 nM [3H]C18-PAF, 60 min, 22-23 °C, Ki from IC50 (Cheng and Prusoff).

Structures can show the parent of a compound that is named as a salt. Where two headings read alike, the source gives them in different places.

PAF receptor, sequence (G1TEI7 1-342): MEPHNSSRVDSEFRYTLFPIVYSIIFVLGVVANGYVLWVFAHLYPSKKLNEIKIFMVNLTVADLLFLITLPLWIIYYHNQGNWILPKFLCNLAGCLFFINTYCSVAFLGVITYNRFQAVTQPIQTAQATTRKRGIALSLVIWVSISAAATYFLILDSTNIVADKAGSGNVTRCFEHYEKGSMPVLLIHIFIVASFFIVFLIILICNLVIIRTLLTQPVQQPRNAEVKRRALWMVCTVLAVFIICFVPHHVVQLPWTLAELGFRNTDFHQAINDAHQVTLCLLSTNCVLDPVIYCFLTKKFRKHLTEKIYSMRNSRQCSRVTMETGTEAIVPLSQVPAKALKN

For orientation: Ki means a dissociation constant, usually derived from enzyme kinetics or from competition with a known ligand. Under setting [1], `O=C(O)CCn1cc(C(=O)C2CSC(c3cccnc3)N2)c2ccccc21` (centres unmarked) [Example 119, 1-carboxyethyl-3-[2-(3-pyridinyl)thiazolid-4-oyl]indole] registered a Ki of 20 nM.
On the same count and under the same terms, then `O=C(O)Cn1cc(C(=O)C2CSC(c3cccnc3)N2)c2ccccc21` (centres unmarked) [Example 120, 1-carboxymethyl-3-[2-(3-pyridinyl)thiazolid-4-oyl]indole], with 19 nM.
Regarding `NC(=O)CCn1cc(C(=O)C2CSC(c3cccnc3)N2)c2ccccc21` (centres unmarked) [Example 121], where the note is “read-out: Ki (PAF Receptor Binding Activity), 0.6 nM [3H]C18-PAF, 60 min, 22-23 °C, Ki from IC50 (Cheng and Prusoff)”, the Ki was 6 nM.
For `COC(=O)c1ccc2c(C(=O)C3CSC(c4cccnc4)N3)c[nH]c2c1` (centres unmarked) [Example 122, 3-[2-(3-pyridinyl)thiazolid-4-oyl]-6-carbomethoxyindole], the affinity under setting [1] corresponds to a Ki of 400 nM.
Turning to `CN(C)C(=O)n1cc(C(=O)C2CSC(c3cccnc3)N2)c2ccc(OCc3ccccc3)cc21` (centres unmarked) [Example 123, 1-dimethylcarbamoyl-3-[2-(3-pyridinyl)thiazolid-4-oyl]-6-phenylmethoxyindole oxalate], the Ki (0.6 nM [3H]C18-PAF, 60 min, 22-23 °C, Ki from IC50 (Cheng and Prusoff), read-out: Ki (PAF Receptor Binding Activity)) was 2 nM.

The values are drawn from US5382670A, “Platelet activating factor antagonists” (priority 1993, dated 1995).
